The record followed here is US12226405B2, “Compounds and compositions for inhibiting the activity of HIF2-alpha and their methods of use” (Novartis AG, priority 2020, dated 2025).

The subject of test [1] is HIF2α-regulated expression of the endogenous target gene hEGLN3 in 786-O cells. The test can be described thus: Cellular iScript assay for HIF2α (quantitative RT-PCR of hEGLN3). The test is classed as cell-based, human. The note with it: Homo sapiens, 786-0, 48 hours incubation. Here is the method: (§1) Stock solutions of compounds were prepared at a concentration of 10 mM in DMSO and stored at 4° C. Where necessary to afford a full dose-response curve, the stock solutions were pre-diluted in DMSO to 1,000-fold the desired reduced start concentration. On the day after cell seeding, eleven 2-fold serial dilutions of each compound were dispensed directly into the cell assay plates using either HP 300D non-contact Digital Dispenser (TECAN) or a ATS100 acoustic dispenser (EDC Biosystems).
Compound-mediated modulation of the HIF2α-regulated expression of the endogenous target gene hEGLN3 (OMIM: 606426), as well as beta-actin (OMIM: 102630) as a house-keeping control, was assess in 786-O cells (RRID CVCL_1051) using a quantitative RT-PCR approach. In short, 786-O cells were maintained in growth medium composed of DMEM (GIBCO #11995-065), 2 mM L-Glutamine (BioConcept #5-10K50-H), 1× Penicillin/Streptomycin (BioConcept #4-01F00-H), 10% fetal calf serum (Gibco #A31608-01), 1 mM Sodium pyruvate (BioConcept #5-60F00-H). Cells were seeded at 1,000 cells/20 μL/well into white-wall, clear-bottom 384-well plates (Greiner #781098) and incubated over night at 37° C. prior to addition of serial compound dilutions as described above. Following incubation for 48 hours at 37° C., medium supernatant was discarded and the plate blotted dry by inverting on a tissue. The same procedure was repeated following one wash with 20 μL phosphate-buffered saline. Following addition of 25 μL/well iScript sample preparation reagent (BioRad #170-8899) using a 16-channel Matrix pipette, the plate was incubated for 2 min at room temperature. 20 μL lysate supernatant was then removed and transferred to a new 384 well plate (Costar #3656) and diluted 1:3 by adding 5 μL of the lysate to 10 μL H2O using a Bravo liquid handler (Agilent). 2 μL of the diluted lysate was added to the 8 μL of a mastermix containing 5 μL iTaq Universal Probes One-step kit (BioRad #172-5141), 0.25 μL iScript reverse transcription supermix (BioRad #1708840), 0.25 μL 40×HEX-ZEN-labeled TaqMan probe for beta-actin (IDT #Hs.PT.39a.22214847: Probe 5′ HEX-TCA TCC ATG/ZEN/GTG AGC TGG CGG-3′ (SEQ ID NO: 2) Iowa Black FQ, Primer 1: ACA GAG CCT CGC CTT TG (SEQ ID NO: 3); Primer 2: CCT TGC ACA TGC CGG (SEQ ID NO: 4) AG), 0.25 μL, 40×FAM-ZEN-labeled TaqMan probe for hEGLN3 (IDT #Hs.PT.58.189348: Probe 5′ 6-FAM-TTT GGC TTC/ZEN/TGC CCT TTC TTC AGC-3′ (SEQ ID NO: 5) Iowa Black FQ, Primer 1: CACGGTCAGTCTTCAGTGAG (SEQ ID NO: 6); Primer 2: CGCAACCAGATATGCTATGACT (SEQ ID NO: 7)), 2.25 μL RNase-free water, prelaid in a 384 well plate (ABI #4309849) using a 16-channel Matrix pipette. The plate was sealed with a PCR-compatible optical film (MicroAmp, ABI #4360954) and centrifuged (1500 rpm, 5 min, +4° C.) to collect all reagents in the bottom of the well and to remove bubbles. The plate content was amplified on a 7900HT thermal cycler (ABI) using the following conditions: Step 1: 50° C. for 10 min, Step 2: 95° C. for 3 min, Step 3 (40×): 95° C. for 15 s, 60° C. for 1 min. ROX (reaction volume 10 μL) was used as a passive reference. Data were collected with manual adjustment of the Ct threshold (beta-actin: 0.046, hEGLN3: 0.06) and were analyzed using the 2^(−ΔΔCt) method. Thus, for each sample, the following values were calculated: 2^(−Ct)a for beta-actin, 2^(−Ct)e for EGLN3, and 2^(−ΔCt) calculated as (2^(−Ct)e/2^(−Ct)a). The mean 2^(−ΔCt) as well as the corresponding standard deviation was calculated for each sample. Taking the DMSO-treated sample as a reference, the 2^(−ΔΔCt) for each sample was calculated as follows: 2^(−ΔΔCt)=2^(−ΔCt)sample/(2^(−ΔCt)DMSO). After calculating differential expression as 2^(−ΔΔCt) for each sample, it was then expressed as a percentage (×100) to obtain a dose-response curve in % of DMSO control and IC50s were calculated using a four-parametric fit model.

Test [2] relates to HIF2α-dependent transcription in 786-O-HRE-Luc cells. The test can be described thus: In vitro cellular hypoxia response element (HRE) reporter gene assay (RGA) for HIF2α. The test is classed as cell-based, human. The note with it: Homo sapiens, 24 hours incubation. Here is the method:
as §1
The ability of compounds to inhibit HIF2α- and HIF1α-dependent transcription was assessed in 786-O-HRE-Luc and RCC4-HRE-Luc cells, respectively. The putative unselective inhibition of firefly luciferase activity or expression was assessed in 786-O-UB6-Luc and RCC4-UB6-Luc cells, respectively. The reporter lines were generated as follows: 786-O (RRID: CVCL_1051) and RCC4 (RRID: CVCL_0498) clear cell renal carcinoma cell lines were obtained from ATCC and Celeste Simon (University of Pennsylvania), respectively. Either cell line was transduced with a lentiviral vector in which the expression of a PEST-destabilized version of firefly-luciferase is under the control of either a minimal promoter coupled to four copies of a minimal hypoxia response element (HRE) sequence (pLenti 4×HRE Luc PEST), or a promoter from the house-keeping UBC gene (pLenti UB6 Luc PEST). In short, for the construction of the pLenti 4×HRE Luc PEST vector, 4×HRE DNA oligonucleotides were synthesized, annealed and cloned into pGL4.27 plasmid vector (Promega) predigested with NheI and HindIII restriction enzymes. The sequence of the two DNA oligonucleotides was as follows: NheI 4×HRE HindIII FWD: […] (SEQ ID NO: 8); NheI 4×HRE HindIII REV […] (SEQ ID NO: 9). The 4×HRE Luc PEST fragment was then PCRed from this plasmid with restriction enzyme sites NheI and XhoI at the two ends, and inserted into pLenti6/BLOCK iT DEST (Thermo Fisher Scientific) predigested with NheI and XhoI restriction enzymes. For the construction of the pLenti UB6 Luc PEST vector, the Luc PEST sequence was PCRed from pGL4.27 (Promega) using EcoRV and XhoI restriction enzymes at the two ends, and inserted into pLenti6/UBC/V5/DEST (Thermo Fisher Scientific) predigested with the same enzymes. 786-O and RCC4 cells (300,000 per well of a 6 well plate) were infected in the presence of 10 μg/ml polybrene with lentivirus harvested two days after transfection of HEK293-FT (ThermoFisher Scientific #R70007) cells (80% confluent in a 100 cm^2 dish) with a mix of 1.5 ml OptiMEM (ThermoFisher Scientific #31985062) containing 3 μg of the desired plasmids and 9 μl of ViralPower Packaging mix (ThermoFisher Scientific #K497500), and 1.5 ml OptiMEM containing 36 μl Lipofectamine 2000 (ThermoFisher Scientific #11668019). Successfully infected cells were selected using blasticidin (Gibco #A11139-03) at a final concentration of 5 μg/ml. The resulting stable cell lines were named 786-O pLenti 4×HRE Luc PEST (short: 786-O-HRE-Luc), 786-O pLenti UB6 Luc PEST (short: 786-O-UB6-Luc), RCC4 pLenti 4×HRE Luc PEST (short: RCC4-HRE-Luc) and RCC4 pLenti UB6 Luc PEST (short: RCC4-UB6-Luc). All 4 cell lines were maintained in growth medium composed of DMEM (GIBCO #11995-065), 2 mM L-Glutamine (BioConcept #5-10K50-H), 10% fetal calf serum (Gibco #A31608-01), 1× Penicillin/Streptomycin (BioConcept #4-01F00-H), 1 mM Sodium pyruvate (BioConcept #5-60F00-H) and 5 μg/ml blasticidin (Gibco #A11139-03) at 37° C. in a humidified 5% CO2 incubator.
For the reporter gene assay, the individual cell lines were seeded at 2,500 cells/20 μL/well into white-wall, clear-bottom 384-well plates (Greiner #781098) and incubated over night at 37° C. prior to addition of serial compound dilutions as described above. […]

Test [3] concerns the target HIF2α PAS-B domain (236-350, biotinylated on the N-terminus) (Homo sapiens (Human), UniProt Q99814).
Experimental: The assay buffer contained 50 mM Tris-HCl pH7 (Sigma), 20 mM NaCl (Fluka), 0.02% BSA (Sigma), 0.005% Triton X-100 (Pierce) and 1 mM DTT (Fluka). After a 30 min incubation period, 5 μL Streptavidin PVT SPA Beads (Perkin Elmer) at 1.2 mg/mL, diluted in the buffer, were added.

A value given as a limit tells only on which side of the number the result lay.

HIF2α PAS-B domain (236-350, biotinylated on the N-terminus), sequence (Q99814 236-350): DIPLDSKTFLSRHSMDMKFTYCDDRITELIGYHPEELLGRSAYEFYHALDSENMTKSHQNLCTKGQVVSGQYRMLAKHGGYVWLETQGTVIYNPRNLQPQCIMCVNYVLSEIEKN

On to `FC(F)OC1=CC(C(F)(F)F)=CN2C[C@@]3(CCc4cc(C(F)(F)F)ncc43)N=C12` [Example 3, (S)-8′-(difluoromethoxy)-3,6′-bis(trifluoromethyl)-5,6-dihydro-3′H-spiro[cyclopenta[c]pyridine-7,2′-imidazo[1,2-a]pyridine]], for which the figures for the IC50 in test [1], in test [2] and in test [3] were 187 nM, > 10000 nM and 12 nM, respectively.
`N#CC1=CN2C[C@@]3(CCc4c3ccc(Br)c4F)N=C2C(OC(F)F)=C1` [Example 4, (S)-5′-bromo-8-(difluoromethoxy)-4′-fluoro-2′,3′-dihydro-3H-spiro[imidazo[1,2-a]pyridine-2,1′-indene]-6-carbonitrile]: the IC50 in test [1] worked out at 155 nM; in test [2], 699 nM; in test [3], 9 nM.
For `FCOC1=CC(C(F)(F)F)=CN2C[C@@]3(CCc4c3ccc(Br)c4F)N=C12` [Example 5, (5)-5′-bromo-4′-fluoro-8-(fluoromethoxy)-6-(trifluoromethyl)-2′,3′-dihydro-3H-spiro[imidazo[1,2-a]pyridine-2,1′-indene]], in that order: 138 nM, 328 nM and 9 nM.
On to `Fc1c(Br)ccc2c1CCC[C@@]21CN2C=C(C(F)(F)F)C=C(OC(F)F)C2=N1` [Example 7, (S)-6′-bromo-8-(difluoromethoxy)-5′-fluoro-6-(trifluoromethyl)-3′,4′-dihydro-2′H,3H-spiro[imidazo[1,2-a]pyridine-2,1′-naphthalene]], for which the IC50 in test [1] was 32 nM; in test [2], 82 nM; in test [3] it was ≤ 3 nM.
As for `O=C1CC[C@@]2(CN3C=C(C(F)(F)F)C=C(OC(F)F)C3=N2)c2ccc(Br)c(F)c21` [Example 8, (S)-6′-bromo-8-(difluoromethoxy)-5′-fluoro-6-(trifluoromethyl)-2′H,3H-spiro[imidazo[1,2-a]pyridine-2,1′-naphthalen]-4′(3′H)-one], the values for the IC50 in test [1], in test [2] and in test [3] were 198 nM, 271 nM and 14 nM, respectively.
For `O=C1c2c(ccc(Br)c2F)[C@@]2(C[C@H]1F)CN1C=C(C(F)(F)F)C=C(OC(F)F)C1=N2` [Example 9, (1′S)-6′-bromo-8-(difluoromethoxy)-3′,5′-difluoro-6-(trifluoromethyl)-2′H,3H-spiro[imidazo[1,2-a]pyridine-2,1′-naphthalen]-4′(3H′)-one], in that order: 173 nM, 2210 nM and 15 nM.
For `O[C@H]1c2c(ccc(Br)c2F)[C@@]2(C[C@H]1F)CN1C=C(C(F)(F)F)C=C(OC(F)F)C1=N2` [Example 10, (1′S,3′R,4'S)-6′-bromo-8-(difluoromethoxy)-3′,5′-difluoro-6-(trifluoromethyl)-3′,4′-dihydro-2′H,3H-spiro[imidazo[1,2-a]pyridine-2,1′-naphthalen]-4′-ol], in that order: 77 nM, 207 nM and 21 nM.
For `FC(F)OC1=CC(C(F)(F)F)=CN2C[C@@]3(CCCc4cc(Br)ccc43)N=C12` [Example 11, (S)-6′-bromo-8-(difluoromethoxy)-6-(trifluoromethyl)-3′,4′-dihydro-2′H,3H-spiro[imidazo[1,2-a]pyridine-2,1′-naphthalene]], in that order: 33 nM, 89 nM and ≤ 3 nM.
Regarding `FC(F)OC1=CC(C(F)(F)F)=CN2C[C@@]3(CCCc4ccccc43)N=C12` [Example 12, (S)-8-(difluoromethoxy)-6-(trifluoromethyl)-3′,4′-dihydro-2′H,3H-spiro[imidazo[1,2-a]pyridine-2,1′-naphthalene]], the figures for the IC50 in test [1], in test [2] and in test [3] were 59 nM, 250 nM and 8 nM, respectively.
Taken in the same sequence, the figures for `N#CC1=CN2C[C@@]3(CCCc4c3ccc(Br)c4F)N=C2C(OC(F)F)=C1` [Example 13, (S)-6′-bromo-8-(difluoromethoxy)-5′-fluoro-3′,4′-dihydro-2′H,3H-spiro[imidazo[1,2-a]pyridine-2,1′-naphthalene]-6-carbonitrile] were 42 nM, 113 nM and 5 nM.

As usually defined, the IC50 is the concentration that gives 50% inhibition.
